Results taken from ChEMBL document CHEMBL5705890, “Antitumor activity of an allosteric inhibitor of centromere-associated protein-E” (Proc Natl Acad Sci U S A, 2010).
Blank lines part the entries; values can stand above or below the molecule they belong to. Activity calls are given as the source filed them. The calls are words filed in the database; no cut-off is given here.

What was measured:
[1] = biological target: Centromere-associated protein E (Homo sapiens) (UniProt Q02224); assay: Competitive-like binding affinity to C-terminal 6-his-tagged CENP-E (2 to 340 residues)(unknown origin) expressed in Escherichia coli BL21(DE3) in presence of ATP
Sequence of Centromere-associated protein E (Homo sapiens) (Q02224 whole entry, the tested form may be a part): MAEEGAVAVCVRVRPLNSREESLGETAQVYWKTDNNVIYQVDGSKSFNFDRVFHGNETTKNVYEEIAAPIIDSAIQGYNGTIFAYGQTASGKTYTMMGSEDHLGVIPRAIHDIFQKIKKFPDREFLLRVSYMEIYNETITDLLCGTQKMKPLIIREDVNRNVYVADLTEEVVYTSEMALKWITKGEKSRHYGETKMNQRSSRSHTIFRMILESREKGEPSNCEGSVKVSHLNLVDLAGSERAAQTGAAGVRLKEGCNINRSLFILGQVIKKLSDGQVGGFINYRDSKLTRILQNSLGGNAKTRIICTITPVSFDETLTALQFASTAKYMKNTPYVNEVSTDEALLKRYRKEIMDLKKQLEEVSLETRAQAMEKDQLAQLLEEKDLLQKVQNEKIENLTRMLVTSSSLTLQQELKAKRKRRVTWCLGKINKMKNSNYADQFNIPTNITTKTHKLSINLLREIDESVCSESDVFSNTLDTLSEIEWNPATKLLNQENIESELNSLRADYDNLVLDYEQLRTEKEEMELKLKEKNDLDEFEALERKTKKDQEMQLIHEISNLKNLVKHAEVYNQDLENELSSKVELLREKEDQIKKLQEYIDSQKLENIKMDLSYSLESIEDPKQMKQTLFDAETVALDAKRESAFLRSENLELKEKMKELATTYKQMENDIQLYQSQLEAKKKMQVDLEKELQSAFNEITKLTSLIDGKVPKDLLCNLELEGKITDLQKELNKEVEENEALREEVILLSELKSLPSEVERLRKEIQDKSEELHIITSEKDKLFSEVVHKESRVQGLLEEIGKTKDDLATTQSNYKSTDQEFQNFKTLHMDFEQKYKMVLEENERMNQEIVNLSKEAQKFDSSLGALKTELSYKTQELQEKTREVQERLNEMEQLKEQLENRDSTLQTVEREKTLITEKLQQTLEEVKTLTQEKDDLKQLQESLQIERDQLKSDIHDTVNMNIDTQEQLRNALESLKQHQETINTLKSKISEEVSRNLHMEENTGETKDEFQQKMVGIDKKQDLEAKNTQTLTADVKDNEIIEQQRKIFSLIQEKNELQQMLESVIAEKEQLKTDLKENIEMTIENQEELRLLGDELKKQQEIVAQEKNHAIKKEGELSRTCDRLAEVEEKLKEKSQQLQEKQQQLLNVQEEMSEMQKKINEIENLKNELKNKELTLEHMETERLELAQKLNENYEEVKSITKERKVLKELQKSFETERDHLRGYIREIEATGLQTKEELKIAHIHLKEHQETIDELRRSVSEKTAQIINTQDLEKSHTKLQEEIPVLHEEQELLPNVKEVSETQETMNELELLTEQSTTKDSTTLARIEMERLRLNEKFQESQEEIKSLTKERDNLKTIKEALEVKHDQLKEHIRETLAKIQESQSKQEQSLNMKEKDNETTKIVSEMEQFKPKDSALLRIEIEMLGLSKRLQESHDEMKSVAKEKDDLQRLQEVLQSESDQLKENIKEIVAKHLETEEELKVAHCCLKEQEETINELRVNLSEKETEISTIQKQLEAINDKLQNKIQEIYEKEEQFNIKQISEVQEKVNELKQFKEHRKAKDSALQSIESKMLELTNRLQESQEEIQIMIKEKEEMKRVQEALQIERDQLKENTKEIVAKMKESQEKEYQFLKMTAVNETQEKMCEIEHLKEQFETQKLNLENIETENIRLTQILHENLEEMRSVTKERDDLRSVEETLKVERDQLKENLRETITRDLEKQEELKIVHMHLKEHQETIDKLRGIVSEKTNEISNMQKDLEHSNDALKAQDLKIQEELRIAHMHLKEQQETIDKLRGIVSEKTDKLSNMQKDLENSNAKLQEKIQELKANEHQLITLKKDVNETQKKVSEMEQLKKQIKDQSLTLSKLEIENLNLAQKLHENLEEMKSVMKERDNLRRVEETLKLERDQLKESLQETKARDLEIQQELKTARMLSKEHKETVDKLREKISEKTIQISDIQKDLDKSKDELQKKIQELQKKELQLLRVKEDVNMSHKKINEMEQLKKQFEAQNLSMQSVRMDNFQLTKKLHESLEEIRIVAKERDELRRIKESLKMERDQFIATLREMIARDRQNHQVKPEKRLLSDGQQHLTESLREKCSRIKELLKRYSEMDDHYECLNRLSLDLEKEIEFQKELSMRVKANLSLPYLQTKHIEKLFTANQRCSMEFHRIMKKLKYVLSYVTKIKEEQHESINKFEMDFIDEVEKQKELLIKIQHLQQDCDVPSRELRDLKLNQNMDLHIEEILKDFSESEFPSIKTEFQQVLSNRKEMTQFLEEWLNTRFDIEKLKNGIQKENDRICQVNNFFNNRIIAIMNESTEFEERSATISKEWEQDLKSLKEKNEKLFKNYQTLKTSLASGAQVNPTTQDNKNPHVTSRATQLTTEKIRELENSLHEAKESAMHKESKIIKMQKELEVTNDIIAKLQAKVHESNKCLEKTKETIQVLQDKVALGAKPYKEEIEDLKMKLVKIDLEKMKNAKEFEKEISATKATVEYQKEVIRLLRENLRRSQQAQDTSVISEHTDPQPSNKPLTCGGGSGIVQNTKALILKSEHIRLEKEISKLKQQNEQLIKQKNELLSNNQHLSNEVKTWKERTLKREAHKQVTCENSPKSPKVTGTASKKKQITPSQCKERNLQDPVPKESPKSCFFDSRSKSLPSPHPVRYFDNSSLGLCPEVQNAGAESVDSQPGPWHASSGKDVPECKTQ

[2] = biological target: Centromere-associated protein E (Homo sapiens) (UniProt Q02224); assay: Binding affinity to C-terminal 6-his-tagged CENP-E (2 to 340 residues)(unknown origin) expressed in Escherichia coli BL21(DE3) photo-exposed for 30 mins by LC-MS analysis
[3] = test system: CC(C)Oc1ccc(C(=O)N[C@H](CNC(=O)CN(C)C)Cc2ccc(-c3cn4cccc([C@H](C)O)c4n3)cc2)cc1Cl; conditions: Canis lupus familiaris
Description: Binding affinity to wild-type dog CENP-E assessed as catalytic constant

[4] = test system: CC(C)Oc1ccc(C(=O)N[C@H](CNC(=O)CN(C)C)Cc2ccc(-c3cn4cccc([C@H](C)O)c4n3)cc2)cc1Cl; conditions: Canis lupus familiaris; remark: listed apart in the source
Description: Binding affinity to wild-type dog CENP-E assessed as Km in presence of microtubule

[5] = test system: CC(C)Oc1ccc(C(=O)N[C@H](CNC(=O)CN(C)C)Cc2ccc(-c3cn4cccc([C@H](C)O)c4n3)cc2)cc1Cl; conditions: Canis lupus familiaris; remark: listed apart in the source
Description: Binding affinity to wild-type dog CENP-E assessed as Km in presence of ATP

[6] = test system: CC(C)Oc1ccc(C(=O)N[C@H](CNC(=O)CN(C)C)Cc2ccc(-c3cn4cccc([C@H](C)O)c4n3)cc2)cc1Cl; conditions: Mus musculus
Description: Binding affinity to wild-type mouse CENP-E assessed as catalytic constant

[7] = test system: CC(C)Oc1ccc(C(=O)N[C@H](CNC(=O)CN(C)C)Cc2ccc(-c3cn4cccc([C@H](C)O)c4n3)cc2)cc1Cl; conditions: Mus musculus; remark: listed apart in the source
Description: Binding affinity to wild-type mouse CENP-E assessed as Km in presence of microtubule

[8] = test system: CC(C)Oc1ccc(C(=O)N[C@H](CNC(=O)CN(C)C)Cc2ccc(-c3cn4cccc([C@H](C)O)c4n3)cc2)cc1Cl; conditions: Mus musculus; remark: listed apart in the source
Description: Binding affinity to wild-type mouse CENP-E assessed as Km in presence of ATP

[9] = biological target: Centromere protein E (Canis lupus familiaris) (UniProt A0A8P0P634); assay: Binding affinity to wild-type dog CENP-E assessed as ATPase activity
Sequence of Centromere protein E (Canis lupus familiaris) (A0A8P0P634 as listed by the source): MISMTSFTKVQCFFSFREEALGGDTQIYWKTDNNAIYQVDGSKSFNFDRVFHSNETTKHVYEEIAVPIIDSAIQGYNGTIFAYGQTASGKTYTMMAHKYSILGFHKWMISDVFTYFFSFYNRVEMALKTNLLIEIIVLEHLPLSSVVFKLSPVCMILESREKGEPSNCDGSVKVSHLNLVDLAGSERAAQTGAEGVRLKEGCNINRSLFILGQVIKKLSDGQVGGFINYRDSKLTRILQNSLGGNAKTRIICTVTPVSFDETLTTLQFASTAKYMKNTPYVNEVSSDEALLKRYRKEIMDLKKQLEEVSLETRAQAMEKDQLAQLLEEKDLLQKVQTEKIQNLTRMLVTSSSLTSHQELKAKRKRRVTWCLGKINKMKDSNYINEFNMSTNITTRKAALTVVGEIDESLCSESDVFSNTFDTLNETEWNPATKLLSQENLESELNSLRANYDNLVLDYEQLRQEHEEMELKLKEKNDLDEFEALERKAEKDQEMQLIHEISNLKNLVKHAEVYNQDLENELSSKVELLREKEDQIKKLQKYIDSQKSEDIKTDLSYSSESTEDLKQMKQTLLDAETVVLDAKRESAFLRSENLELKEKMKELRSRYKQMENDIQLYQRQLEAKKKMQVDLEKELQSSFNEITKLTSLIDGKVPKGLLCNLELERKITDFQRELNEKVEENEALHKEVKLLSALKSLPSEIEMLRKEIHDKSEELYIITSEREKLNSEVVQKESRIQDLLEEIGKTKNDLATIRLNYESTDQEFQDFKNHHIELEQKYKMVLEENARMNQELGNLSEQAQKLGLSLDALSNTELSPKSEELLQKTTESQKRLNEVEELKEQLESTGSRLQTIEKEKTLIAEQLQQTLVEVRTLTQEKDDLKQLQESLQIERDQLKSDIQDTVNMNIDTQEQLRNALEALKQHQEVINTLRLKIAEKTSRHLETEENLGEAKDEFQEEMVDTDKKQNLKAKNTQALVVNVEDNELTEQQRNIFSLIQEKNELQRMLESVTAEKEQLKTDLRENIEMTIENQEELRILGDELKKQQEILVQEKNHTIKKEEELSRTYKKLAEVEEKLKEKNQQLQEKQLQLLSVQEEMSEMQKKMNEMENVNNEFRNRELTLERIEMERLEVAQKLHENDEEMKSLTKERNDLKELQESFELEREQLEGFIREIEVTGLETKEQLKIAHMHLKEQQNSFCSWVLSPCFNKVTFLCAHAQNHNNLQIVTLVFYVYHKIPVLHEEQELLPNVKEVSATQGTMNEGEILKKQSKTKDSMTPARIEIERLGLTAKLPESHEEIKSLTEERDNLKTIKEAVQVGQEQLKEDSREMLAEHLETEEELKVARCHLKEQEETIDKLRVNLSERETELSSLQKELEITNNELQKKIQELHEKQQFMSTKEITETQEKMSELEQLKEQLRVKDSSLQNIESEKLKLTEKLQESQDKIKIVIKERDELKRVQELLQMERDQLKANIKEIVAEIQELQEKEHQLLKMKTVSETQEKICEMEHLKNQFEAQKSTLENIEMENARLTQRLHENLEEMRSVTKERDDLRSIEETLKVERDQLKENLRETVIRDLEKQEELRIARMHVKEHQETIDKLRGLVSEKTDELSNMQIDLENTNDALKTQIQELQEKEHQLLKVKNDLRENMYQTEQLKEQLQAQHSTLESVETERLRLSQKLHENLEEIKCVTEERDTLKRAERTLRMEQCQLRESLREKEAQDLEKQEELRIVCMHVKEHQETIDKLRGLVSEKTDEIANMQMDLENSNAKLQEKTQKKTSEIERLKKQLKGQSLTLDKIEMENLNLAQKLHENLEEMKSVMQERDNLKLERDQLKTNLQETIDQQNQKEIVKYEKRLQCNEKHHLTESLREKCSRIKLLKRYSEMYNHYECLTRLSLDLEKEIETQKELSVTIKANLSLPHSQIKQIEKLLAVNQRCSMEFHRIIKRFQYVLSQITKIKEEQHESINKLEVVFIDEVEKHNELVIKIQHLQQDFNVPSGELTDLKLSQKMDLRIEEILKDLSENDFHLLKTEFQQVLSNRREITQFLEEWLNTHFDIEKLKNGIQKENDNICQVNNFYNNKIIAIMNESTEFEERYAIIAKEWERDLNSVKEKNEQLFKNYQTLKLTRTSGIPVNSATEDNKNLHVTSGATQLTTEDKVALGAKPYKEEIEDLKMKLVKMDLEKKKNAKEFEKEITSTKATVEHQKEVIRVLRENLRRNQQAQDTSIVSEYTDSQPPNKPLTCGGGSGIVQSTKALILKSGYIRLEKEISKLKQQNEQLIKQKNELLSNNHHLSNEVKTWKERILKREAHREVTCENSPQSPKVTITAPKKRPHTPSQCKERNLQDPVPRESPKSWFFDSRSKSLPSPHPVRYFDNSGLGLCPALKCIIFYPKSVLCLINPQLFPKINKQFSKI

[10] = organism: Homo sapiens; assay: Binding affinity to human CENP-E T183A/K184T mutant assessed as ATPase activity
[11] = test system: COLO 205; assay: Induction of morphological change in human COLO 205 cells xenografted in mouse assessed as appearance of mitotic figures in tumor at 125 mg/kg measured after 24 hrs of single administration by H and E staining based analysis; format: functional, organism-based
[12] = test system: COLO 205; assay: Induction of morphological change in human COLO 205 cells xenografted in mouse assessed as appearance of scattered apoptotic bodies in tumor at 125 mg/kg measured after 24 hrs of single administration by H and E staining based analysis; format: functional, organism-based
[13] = test system: COLO 205; assay: Effect on cell cycle distribution in human COLO 205 cells xenografted in mouse assessed as increase in ratio of 4n to 2n nuclei measured after 24 hrs of single administration by flow cytometry; format: functional, cell-based; conditions: dose <= 125.0 mg/kg
[14] = test system: COLO 205; assay: Antitumor activity against human COLO 205 cells xenografted in mouse assessed as reduction in tumor volume administered intraperitoneally three doses daily on 2 consecutive weeks; format: functional, cell-based; conditions: dose 62.5-125 mg/kg, route ip, time 2.0 weeks
[15] = organism: Homo sapiens
Description: Binding affinity to human CENP-E T183A/K184T mutant assessed as catalytic constant

[16] = organism: Homo sapiens; remark: listed apart in the source
Description: Binding affinity to human CENP-E T183A/K184T mutant assessed as Km in presence of microtubule

[17] = organism: Homo sapiens; remark: listed apart in the source
Description: Binding affinity to human CENP-E T183A/K184T mutant assessed as Km in presence of ATP

[18] = biological target: Centromere-associated protein E (Homo sapiens) (UniProt Q02224)
Description: Binding affinity to C-terminal 6-his-tagged CENP-E (2 to 340 residues)(unknown origin) expressed in Escherichia coli BL21(DE3) assessed as compound dissociation by measuring t1/2

[19] = biological target: Centromere-associated protein E (Homo sapiens) (UniProt Q02224); assay: Uncompetitive-like binding affinity to C-terminal 6-his-tagged CENP-E (2 to 340 residues)(unknown origin) expressed in Escherichia coli BL21(DE3) in presence of ATP
[20] = test system: HCC1954; assay: Induction of morphological change in human HCC1954 cells expressing GFP-histone 2B assessed as bipolar spindle formation of chromosomes at 0.2 ug/ml measured for 5 days on every 15 mins by PI staining based analysis; format: functional, cell-based; conditions: dose 0.2 µg/ml, time 5.0 day
[21] = biological target: Centromere-associated protein E (Homo sapiens) (UniProt Q02224); assay: Inhibition of CENP-E motor domain ATPase in human HCC1954 cells assessed as increase in 4n DNA content at 325 nM measured for 144 hrs by flow cytometry; format: cell-based
[22] = biological target: Centromere-associated protein E (Homo sapiens) (UniProt Q02224); assay: Inhibition of CENP-E motor domain ATPase in human HCC1954 cells assessed as increase in cyclin B level by Western blot analysis; format: cell-based
[23] = biological target: Centromere-associated protein E (Homo sapiens) (UniProt Q02224); assay: Inhibition of CENP-E motor domain ATPase in human HCC1954 cells assessed as increase in Ser10 phosphorylated histone H3 level by Western blot analysis; format: cell-based
[24] = test system: HCC1954; assay: Induction of apoptosis in human HCC1954 cells assessed as increase in PARP cleavage measured for 145 hrs by Western blot analysis; format: functional, cell-based
[25] = test system: SK-OV-3; assay: Induction of morphological change in human SK-OV-3 cells assessed as increase in mitotic cells with bipolar spindle formation of chromosomes at 50 nM measured for 24 to 32 hrs by microscopic analysis; format: functional, cell-based; conditions: time 24-32 hrs
[26] = biological target: Centromere-associated protein E (Homo sapiens) (UniProt Q02224); assay: Inhibition of CENP-E motor domain ATPase in human HCC1954 cells expressing GFP-histone 2B assessed as increase in mitotic index at 0.2 ug/ml measured for 5 days on every 15 mins by PI staining based analysis; format: cell-based; conditions: dose 0.2 µg/ml, time 5.0 day

Molecule: Centromere protein E (Canis lupus familiaris), A0A8P0P634
kcat [3]: 11.1 s⁻¹
Km [4]: 0.38 µM
Km [5]: 34 µM

Molecule: Centromere-associated protein E (Mus musculus), Q6RT24
kcat [6]: 10.1 s⁻¹
Km [7]: 0.55 µM
Km [8]: 25 µM

Molecule: Cc1cccn2cc(-c3ccc(C[C@@H](CCO)NC(=O)c4ccc(OC(C)C)c(C#N)c4)cc3)nc12
alphaKi [19]: 0.25 nM
Activity [20]: Active
inhibition [21]: Active
inhibition [22]: Active
inhibition [23]: Active
Activity [24]: Active
Activity [25]: Active
inhibition [26]: Active

More lines, main results first:

alphaKi [1]: 8 nM
Activity [2]: Active
Molecule: CNC(=O)C(Cc1ccc(C(=O)c2ccccc2)cc1)NC(=O)c1ccc(OC(C)C)c(Cl)c1 (stereo unspecified)

Activity [9]: 0.32 s⁻¹
Activity [10]: 0.06 s⁻¹
kcat [15]: 12.1 s⁻¹
Km [16]: 1.81 µM
Km [17]: 20 µM
T1/2 [18]: 10.2 h
Molecule: CC(C)Oc1ccc(C(=O)N[C@H](CNC(=O)CN(C)C)Cc2ccc(-c3cn4cccc([C@H](C)O)c4n3)cc2)cc1Cl
Activity [11]: Active
Activity [12]: Active
Activity [13]: Dose-Dependent Effect
Activity [14]: Dose-Dependent Effect
